Results published in patent US10072026B2, “Crystalline form of 3-((1R,3s,5S)-3-((7-((5-methyl-1H-pyrazol-3-yl)amino)-1,6-naphthyridin-5-yl)amino)-8-azabicyclo[3.2.1]octan-8-yl)propanenitrile” (priority 2015, dated 2018).

What was measured:
[1] = biological target: JAK1 (Homo sapiens (Human), UniProt P23458); assay: LanthaScreen JAK biochemical assay (JAK1)
[2] = biological target: JAK2 (Homo sapiens (Human), UniProt O60674); assay: LanthaScreen JAK biochemical assay (JAK2)
[3] = biological target: JAK3 (Homo sapiens (Human), UniProt P52333); assay: LanthaScreen JAK biochemical assay (JAK3)
[4] = biological target: Tyk2 (Homo sapiens (Human), UniProt P29597); assay: LanthaScreen JAK biochemical assay (Tyk2)
Chain of Tyk2 (P29597 whole entry): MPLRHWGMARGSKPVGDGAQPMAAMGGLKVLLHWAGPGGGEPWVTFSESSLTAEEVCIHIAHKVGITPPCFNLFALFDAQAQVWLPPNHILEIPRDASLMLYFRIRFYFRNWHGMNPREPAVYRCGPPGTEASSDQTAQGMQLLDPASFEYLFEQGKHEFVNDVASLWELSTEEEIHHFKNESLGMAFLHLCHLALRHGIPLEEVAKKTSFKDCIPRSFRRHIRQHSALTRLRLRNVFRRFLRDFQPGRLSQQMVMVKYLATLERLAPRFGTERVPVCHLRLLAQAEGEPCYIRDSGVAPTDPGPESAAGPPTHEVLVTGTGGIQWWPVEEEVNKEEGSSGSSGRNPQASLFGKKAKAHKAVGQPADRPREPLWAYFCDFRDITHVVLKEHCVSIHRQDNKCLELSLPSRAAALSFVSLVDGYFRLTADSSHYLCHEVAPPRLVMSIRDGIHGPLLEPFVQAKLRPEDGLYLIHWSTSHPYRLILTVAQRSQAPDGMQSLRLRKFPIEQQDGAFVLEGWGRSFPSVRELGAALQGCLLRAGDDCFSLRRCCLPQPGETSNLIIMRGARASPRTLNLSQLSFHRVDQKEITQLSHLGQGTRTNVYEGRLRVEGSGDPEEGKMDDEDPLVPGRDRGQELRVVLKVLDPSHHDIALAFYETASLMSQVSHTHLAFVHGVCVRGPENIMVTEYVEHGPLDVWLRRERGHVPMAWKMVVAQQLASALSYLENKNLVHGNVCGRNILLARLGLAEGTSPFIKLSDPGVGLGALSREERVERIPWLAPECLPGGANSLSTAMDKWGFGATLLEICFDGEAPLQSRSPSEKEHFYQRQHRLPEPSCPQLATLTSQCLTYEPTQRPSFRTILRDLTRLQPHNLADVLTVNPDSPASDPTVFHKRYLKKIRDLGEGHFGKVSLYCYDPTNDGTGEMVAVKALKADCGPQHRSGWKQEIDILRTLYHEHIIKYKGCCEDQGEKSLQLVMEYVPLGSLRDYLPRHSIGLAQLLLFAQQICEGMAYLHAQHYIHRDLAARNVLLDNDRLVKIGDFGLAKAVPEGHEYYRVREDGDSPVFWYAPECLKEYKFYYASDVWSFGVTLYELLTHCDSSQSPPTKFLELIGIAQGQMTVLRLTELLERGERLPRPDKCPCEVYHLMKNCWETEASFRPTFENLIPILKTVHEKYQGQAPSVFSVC

[5] = tested on: IL-4 induced STAT6 phosphorylation in THP-1 human monocytic cells; assay: Cellular JAK potency assay, THP-1
[6] = tested on: IL-13 induced STAT6 phosphorylation in BEAS-2B human lung epithelial cells; assay: AlphaScreen cellular JAK potency assay, BEAS-2B
[7] = THP-1 cells, IL-4 induced STAT6 phosphorylation
[8] = BEAS-2B cells, IL-13 induced STAT6 phosphorylation
[9] = IL-4 induced STAT6 phosphorylation, THP-1 cells
[10] = IL-13 induced STAT6 phosphorylation, BEAS-2B cells

Chain of JAK1 (P23458 whole entry): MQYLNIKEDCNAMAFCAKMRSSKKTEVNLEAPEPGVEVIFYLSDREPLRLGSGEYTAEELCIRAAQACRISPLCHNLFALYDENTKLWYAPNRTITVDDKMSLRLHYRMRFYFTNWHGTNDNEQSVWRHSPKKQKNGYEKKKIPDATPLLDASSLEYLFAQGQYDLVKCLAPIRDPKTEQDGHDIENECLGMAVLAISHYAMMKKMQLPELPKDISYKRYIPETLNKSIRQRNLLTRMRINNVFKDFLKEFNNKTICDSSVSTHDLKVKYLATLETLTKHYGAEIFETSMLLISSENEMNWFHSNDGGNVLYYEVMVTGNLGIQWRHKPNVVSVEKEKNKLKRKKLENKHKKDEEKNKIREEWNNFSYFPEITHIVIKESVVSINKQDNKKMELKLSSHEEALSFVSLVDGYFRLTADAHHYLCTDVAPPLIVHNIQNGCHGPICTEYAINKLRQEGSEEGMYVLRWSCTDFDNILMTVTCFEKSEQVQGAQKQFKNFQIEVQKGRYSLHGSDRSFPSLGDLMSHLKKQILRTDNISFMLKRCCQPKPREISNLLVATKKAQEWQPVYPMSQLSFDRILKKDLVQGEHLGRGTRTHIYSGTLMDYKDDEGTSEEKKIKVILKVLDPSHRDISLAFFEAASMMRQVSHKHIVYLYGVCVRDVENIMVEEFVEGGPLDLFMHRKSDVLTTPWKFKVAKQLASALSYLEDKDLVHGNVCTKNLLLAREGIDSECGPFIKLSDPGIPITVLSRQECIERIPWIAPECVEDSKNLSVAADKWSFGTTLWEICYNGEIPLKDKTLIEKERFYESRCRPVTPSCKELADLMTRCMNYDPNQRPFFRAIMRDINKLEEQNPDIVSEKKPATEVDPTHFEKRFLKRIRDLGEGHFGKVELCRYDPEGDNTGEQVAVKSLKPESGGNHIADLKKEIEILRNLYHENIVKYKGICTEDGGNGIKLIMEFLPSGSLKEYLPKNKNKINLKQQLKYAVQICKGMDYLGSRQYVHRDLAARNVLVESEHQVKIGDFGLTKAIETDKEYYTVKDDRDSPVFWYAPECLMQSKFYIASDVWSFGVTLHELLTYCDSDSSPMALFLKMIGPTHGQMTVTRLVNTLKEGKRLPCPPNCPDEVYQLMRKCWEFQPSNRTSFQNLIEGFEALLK
Chain of JAK2 (O60674 whole entry): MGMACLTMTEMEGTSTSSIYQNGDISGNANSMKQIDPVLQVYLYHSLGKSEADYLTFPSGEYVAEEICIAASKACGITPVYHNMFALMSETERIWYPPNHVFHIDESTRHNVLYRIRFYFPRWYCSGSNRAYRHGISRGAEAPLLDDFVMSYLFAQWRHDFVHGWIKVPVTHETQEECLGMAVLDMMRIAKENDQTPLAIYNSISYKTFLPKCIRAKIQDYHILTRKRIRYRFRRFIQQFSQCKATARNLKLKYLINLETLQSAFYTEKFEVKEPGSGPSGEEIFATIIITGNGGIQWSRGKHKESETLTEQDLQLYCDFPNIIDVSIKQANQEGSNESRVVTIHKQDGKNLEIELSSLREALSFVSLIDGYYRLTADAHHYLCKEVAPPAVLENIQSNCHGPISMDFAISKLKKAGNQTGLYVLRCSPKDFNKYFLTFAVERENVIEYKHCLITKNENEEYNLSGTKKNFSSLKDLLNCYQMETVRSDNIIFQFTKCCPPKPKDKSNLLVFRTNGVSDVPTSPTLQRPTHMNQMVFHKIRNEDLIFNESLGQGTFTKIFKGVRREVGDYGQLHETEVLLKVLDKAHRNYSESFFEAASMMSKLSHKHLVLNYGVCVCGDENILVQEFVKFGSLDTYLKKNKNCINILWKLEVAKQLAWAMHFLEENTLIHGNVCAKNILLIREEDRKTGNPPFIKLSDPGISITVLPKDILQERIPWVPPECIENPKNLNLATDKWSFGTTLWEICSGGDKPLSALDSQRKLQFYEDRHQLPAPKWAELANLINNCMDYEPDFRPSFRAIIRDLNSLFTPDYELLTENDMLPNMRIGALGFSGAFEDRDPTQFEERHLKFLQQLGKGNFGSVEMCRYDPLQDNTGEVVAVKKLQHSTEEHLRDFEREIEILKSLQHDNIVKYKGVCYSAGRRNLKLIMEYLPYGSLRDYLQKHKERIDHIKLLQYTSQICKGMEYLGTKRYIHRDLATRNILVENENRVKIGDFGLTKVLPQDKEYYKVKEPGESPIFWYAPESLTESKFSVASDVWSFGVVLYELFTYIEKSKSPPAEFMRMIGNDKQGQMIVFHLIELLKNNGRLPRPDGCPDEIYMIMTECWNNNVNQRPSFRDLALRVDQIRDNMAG

| Compound | JAK 1 (pKi) [1] | JAK 2 (pKi) [2] | JAK 3 (pKi) [3] | Tyk 2 (pKi) [4] | THP-1 IL4 pIC50 [5, 7] | BEAS2B pIC50 [6, 8] | THP-1 IL4 pIC50 [5, 9] | BEAS2B pIC50 [6, 10] |
| --- | --- | --- | --- | --- | --- | --- | --- | --- |
| Cc1cnc2cc(Nc3cc(C)[nH]n3)nc(N[C@@H]3C[C@H]4CCC[C@@H](C3)N4Cc3ccncc3)c2c1 [Example 6-10] | B (B represents a pKi value between 9 and 10 (Ki between 1 nM and 0.1 nM)) | B (B represents a pKi value between 9 and 10 (Ki between 1 nM and 0.1 nM)) | C (C represents a pKi value between 7 and 9 (Ki between 100 nM and 1 nM)) | B (B represents a pKi value between 9 and 10 (Ki between 1 nM and 0.1 nM)) | B (B represents a pEC50 value between 6.7 and 7.5 (EC50 between 200 nM and 32 nM)) | – | – | – |
| Cc1cc(Nc2nc(N[C@@H]3C[C@H]4CC[C@@H](C3)N4S(C)(=O)=O)c3cccnc3c2F)n[nH]1 [Example 8-2] | B (B represents a pKi value between 9 and 10 (Ki between 1 nM and 0.1 nM)) | B (B represents a pKi value between 9 and 10 (Ki between 1 nM and 0.1 nM)) | C (C represents a pKi value between 7 and 9 (Ki between 100 nM and 1 nM)) | – | A (A represents a pEC50 value≥7.5 (EC50≤32 nM)) | C (C represents a pEC50 value<6.7 (EC50>200 nM)) | – | – |
| COC(=O)c1cnc2cc(Nc3cc(C)[nH]n3)nc(N[C@@H]3C[C@H]4CCC[C@@H](C3)N4C[C@H]3CCC(=O)O3)c2c1 [Example 6-49] | B (B represents a pKi value between 9 and 10 (Ki between 1 nM and 0.1 nM)) | B (B represents a pKi value between 9 and 10 (Ki between 1 nM and 0.1 nM)) | C (C represents a pKi value between 7 and 9 (Ki between 100 nM and 1 nM)) | C (C represents a pKi value between 7 and 9 (Ki between 100 nM and 1 nM)) | B (B represents a pEC50 value between 6.7 and 7.5 (EC50 between 200 nM and 32 nM)) | – | – | – |
| Cc1cc(Nc2cc3ncccc3c(N[C@@H]3C[C@H]4CC[C@@H](C3)N4C(=O)C(C)F)n2)n[nH]1 (some centres unmarked) [Example 2-3] | B (B represents a pKi value between 9 and 10 (Ki between 1 nM and 0.1 nM)) | B (B represents a pKi value between 9 and 10 (Ki between 1 nM and 0.1 nM)) | C (C represents a pKi value between 7 and 9 (Ki between 100 nM and 1 nM)) | – | – | – | B (B represents a pEC50 value between 6.7 and 7.5 (EC50 between 200 nM and 32 nM)) | A (A represents a pEC50 value≥7.5 (EC50≤32 nM)) |
| Cc1cnc2cc(Nc3cc(C)[nH]n3)nc(N[C@@H]3C[C@H]4CC[C@@H](C3)N4C(=O)OCC(C)C)c2c1 [Example 6-3] | B (B represents a pKi value between 9 and 10 (Ki between 1 nM and 0.1 nM)) | B (B represents a pKi value between 9 and 10 (Ki between 1 nM and 0.1 nM)) | C (C represents a pKi value between 7 and 9 (Ki between 100 nM and 1 nM)) | – | B (B represents a pEC50 value between 6.7 and 7.5 (EC50 between 200 nM and 32 nM)) | B (B represents a pEC50 value between 6.7 and 7.5 (EC50 between 200 nM and 32 nM)) | – | – |
| COc1cnc2cc(Nc3cc(C)[nH]n3)nc(N[C@@H]3C[C@H]4CC[C@@H](C3)N4S(=O)(=O)CCC#N)c2c1 [Example 6-22] | B (B represents a pKi value between 9 and 10 (Ki between 1 nM and 0.1 nM)) | B (B represents a pKi value between 9 and 10 (Ki between 1 nM and 0.1 nM)) | C (C represents a pKi value between 7 and 9 (Ki between 100 nM and 1 nM)) | B (B represents a pKi value between 9 and 10 (Ki between 1 nM and 0.1 nM)) | – | B (B represents a pEC50 value between 6.7 and 7.5 (EC50 between 200 nM and 32 nM)) | – | – |
| Cc1cc(Nc2nc(NC3CC4CCCC(C3)N4C(=O)C(C)O)c3cccnc3c2F)n[nH]1 (centres unmarked) [Example 8-16] | B (B represents a pKi value between 9 and 10 (Ki between 1 nM and 0.1 nM)) | B (B represents a pKi value between 9 and 10 (Ki between 1 nM and 0.1 nM)) | C (C represents a pKi value between 7 and 9 (Ki between 100 nM and 1 nM)) | C (C represents a pKi value between 7 and 9 (Ki between 100 nM and 1 nM)) | B (B represents a pEC50 value between 6.7 and 7.5 (EC50 between 200 nM and 32 nM)) | – | – | – |
| Cc1cc(Nc2cc3nc(CS(C)(=O)=O)ccc3c(N[C@@H]3C[C@H]4CC[C@@H](C3)N4CCC(F)(F)F)n2)n[nH]1 [Example 5-43] | B (B represents a pKi value between 9 and 10 (Ki between 1 nM and 0.1 nM)) | B (B represents a pKi value between 9 and 10 (Ki between 1 nM and 0.1 nM)) | C (C represents a pKi value between 7 and 9 (Ki between 100 nM and 1 nM)) | B (B represents a pKi value between 9 and 10 (Ki between 1 nM and 0.1 nM)) | – | – | B (B represents a pEC50 value between 6.7 and 7.5 (EC50 between 200 nM and 32 nM)) | – |
| Cc1cc(Nc2nc(NC3CC4CCC(C3)N4C(=O)C(C)O)c3cccnc3c2F)n[nH]1 (centres unmarked) [Example 8-8] | C (C represents a pKi value between 7 and 9 (Ki between 100 nM and 1 nM)) | C (C represents a pKi value between 7 and 9 (Ki between 100 nM and 1 nM)) | C (C represents a pKi value between 7 and 9 (Ki between 100 nM and 1 nM)) | C (C represents a pKi value between 7 and 9 (Ki between 100 nM and 1 nM)) | C (C represents a pEC50 value<6.7 (EC50>200 nM)) | – | – | – |
| Cc1cc(Nc2nc(N[C@@H]3C[C@H]4CCC[C@@H](C3)N4Cc3ccncc3)c3cccnc3c2F)n[nH]1 [Example 8-14] | B (B represents a pKi value between 9 and 10 (Ki between 1 nM and 0.1 nM)) | B (B represents a pKi value between 9 and 10 (Ki between 1 nM and 0.1 nM)) | C (C represents a pKi value between 7 and 9 (Ki between 100 nM and 1 nM)) | – | A (A represents a pEC50 value≥7.5 (EC50≤32 nM)) | A (A represents a pEC50 value≥7.5 (EC50≤32 nM)) | – | – |
| CCC(C)C(=O)N1C2CCCC1CC(Nc1nc(Nc3cc(C)[nH]n3)cc3ncccc13)C2 (centres unmarked) [Example 2-18] | B (B represents a pKi value between 9 and 10 (Ki between 1 nM and 0.1 nM)) | B (B represents a pKi value between 9 and 10 (Ki between 1 nM and 0.1 nM)) | C (C represents a pKi value between 7 and 9 (Ki between 100 nM and 1 nM)) | B (B represents a pKi value between 9 and 10 (Ki between 1 nM and 0.1 nM)) | – | – | A (A represents a pEC50 value≥7.5 (EC50≤32 nM)) | – |
| COc1cnc2cc(Nc3cc(C)[nH]n3)nc(NC3CC4CCCC(C3)N4C(=O)C(C)O)c2c1 (centres unmarked) [Example 6-27] | B (B represents a pKi value between 9 and 10 (Ki between 1 nM and 0.1 nM)) | B (B represents a pKi value between 9 and 10 (Ki between 1 nM and 0.1 nM)) | C (C represents a pKi value between 7 and 9 (Ki between 100 nM and 1 nM)) | C (C represents a pKi value between 7 and 9 (Ki between 100 nM and 1 nM)) | B (B represents a pEC50 value between 6.7 and 7.5 (EC50 between 200 nM and 32 nM)) | – | – | – |
| CCC(C)C(=O)N1C2CCC1CC(Nc1nc(Nc3cc(C)[nH]n3)cc3ncc(C(=O)OC)cc13)C2 (centres unmarked) [Example 6-38] | B (B represents a pKi value between 9 and 10 (Ki between 1 nM and 0.1 nM)) | B (B represents a pKi value between 9 and 10 (Ki between 1 nM and 0.1 nM)) | C (C represents a pKi value between 7 and 9 (Ki between 100 nM and 1 nM)) | C (C represents a pKi value between 7 and 9 (Ki between 100 nM and 1 nM)) | B (B represents a pEC50 value between 6.7 and 7.5 (EC50 between 200 nM and 32 nM)) | – | – | – |
| Cc1cc(Nc2cc3ncccc3c(N[C@@H]3C[C@H]4CCC[C@@H](C3)N4C(=O)OCC3CC3)n2)n[nH]1 [Example 3-10] | B (B represents a pKi value between 9 and 10 (Ki between 1 nM and 0.1 nM)) | B (B represents a pKi value between 9 and 10 (Ki between 1 nM and 0.1 nM)) | C (C represents a pKi value between 7 and 9 (Ki between 100 nM and 1 nM)) | B (B represents a pKi value between 9 and 10 (Ki between 1 nM and 0.1 nM)) | – | – | – | B (B represents a pEC50 value between 6.7 and 7.5 (EC50 between 200 nM and 32 nM)) |
| Cc1cc(Nc2nc(N[C@@H]3C[C@H]4CCC[C@@H](C3)N4S(=O)(=O)c3cncc(F)c3)c3cccnc3c2F)n[nH]1 [Example 8-13] | B (B represents a pKi value between 9 and 10 (Ki between 1 nM and 0.1 nM)) | B (B represents a pKi value between 9 and 10 (Ki between 1 nM and 0.1 nM)) | C (C represents a pKi value between 7 and 9 (Ki between 100 nM and 1 nM)) | – | B (B represents a pEC50 value between 6.7 and 7.5 (EC50 between 200 nM and 32 nM)) | A (A represents a pEC50 value≥7.5 (EC50≤32 nM)) | – | – |
| Cc1cc(Nc2cc3nc(CN4CCC(F)(F)CC4)ccc3c(N[C@@H]3C[C@H]4CC[C@@H](C3)N4CC(C)C)n2)n[nH]1 [Example 5-34] | B (B represents a pKi value between 9 and 10 (Ki between 1 nM and 0.1 nM)) | B (B represents a pKi value between 9 and 10 (Ki between 1 nM and 0.1 nM)) | C (C represents a pKi value between 7 and 9 (Ki between 100 nM and 1 nM)) | B (B represents a pKi value between 9 and 10 (Ki between 1 nM and 0.1 nM)) | – | – | B (B represents a pEC50 value between 6.7 and 7.5 (EC50 between 200 nM and 32 nM)) | – |
